From patent US11491117B2, “Compounds for the prevention and treatment of glucose intolerance related conditions and obesity” (SORBONNE UNIVERSITÉ, priority 2017, dated 2022)

Assays:
[1] = tested on: adipose tissue gene expression; test: Quantitative RT-PCR in retroperitoneal fat pads of chronically treated mice; assay type: in vivo, mouse
Procedure: Transcript abundance of key genes regulating adipose tissue biology was tested by quantitative RT-PCR in retroperitoneal fat pads of mice fed control chow diet (CHD) or high fat diet (HFD). Data were analyzed using the unpaired Mann-Whitney test. […] RNA was extracted from pancreas, adipose tissue and liver using the RNeasy RNA Mini Kit (Qiagen, Courtaboeuf, France). Reverse transcription was performed from a 20 μL reaction mixture with 500 ng RNA using M-MLV reverse transcriptase kit (ThermoFisher, Villebon, France). Quantitative RT-PCR was performed using sequence specific primers and the MESA green kit for SYBR green assays (Eurogentec, Angers, France). We used 18S and/or cyclophilin house keeping genes to normalize relative quantification of mRNA levels using the Livak and […] methods ([…], 2001).

[2] = tested on: Goto-Kakizaki (GK) rats; test: Pancreas histology and immunohistochemistry of chronically treated GK rats; assay type: in vivo, rat
Procedure: Pancreas sections were labeled either with Hematoxylin-Eosin and Immunohistochemistry to determine insulin positive area (FIG. 9F) and treated with Ki 67 and DAPI to stain and quantify proliferative nuclei (FIG. 9G). […] All measures are from 6 rats per group. Data were analyzed using the unpaired Mann-Whitney test. […] Tissues were drop-fixed in 4% paraformaldehyde (Sigma-Aldrich, Saint Quentin Fallavier, France) immediately after collection and put through an automated carousel processor for dehydration, clearing, and paraffin embedding (Leica, Nanterre, France). Sections were prepared for liver (6 μm), pancreas (6 μm) and adipose tissue ([…]) and mounted on slides (DPX polymerizing mountant, Sigma-Aldrich, Saint Quentin Fallavier, France). Hematoxylin and Eosin (H&E) was used to evaluate tissue morphology. Epitope-specific antibodies were used for immunohistochemistry detection of insulin on pancreas sections (Dako, Saint Aubin, France). […] Quantitative expression of all immunostainings was performed using positive pixels algorithm (Indica Labs, Corrales, N. Mex.). […] Results are expressed as percentage of positive pixels, within islets where indicated. The quantification method is an automated observer-independent process based on section scanning and application of publicly available algorithms. […]

[3] = tested on: pancreas gene expression; test: Quantitative RT-PCR in pancreas of chronically treated GK rats; assay type: in vivo, rat
Procedure: RNA was extracted from pancreas, adipose tissue and liver using the RNeasy RNA Mini Kit (Qiagen, Courtaboeuf, France). Reverse transcription was performed from a 20 μL reaction mixture with 500 ng RNA using M-MLV reverse transcriptase kit (ThermoFisher, Villebon, France). Quantitative RT-PCR was performed using sequence specific primers and the MESA green kit for SYBR green assays (Eurogentec, Angers, France). We used 18S and/or cyclophilin house keeping genes to normalize relative quantification of mRNA levels using the Livak and […] methods ([…], 2001).

[4] = tested on: isolated mouse islets; test: Incubation of isolated mouse islets: insulin release, insulin content, Ki67 proliferation; assay type: cell-based
[5] = target: dual specificity tyrosine phosphorylation regulated kinase DYRK1A (Homo sapiens, UniProt Q13627); test: In vitro interaction analysis (DiscoverX) by determination of the EC50

Cc1ccc(O)cc1 [4-cresol]
Ucp1 expression in adipose tissue ([1]; CHD fed mice): markedly downregulated | expression of Sirt1, Cav2, Hsl and Pnpla2 (Atg1) in adipose tissue ([1]; CHD fed mice): significantly stimulated | Ucp1 expression in adipose tissue ([1]; HFD-fed mice, vs HFD saline and CHD 4-cresol): significantly downregulated | expression of Hsl and Pnpla2 in adipose tissue ([1]; HFD-fed mice, vs saline treated fat fed mice): significantly upregulated | cell proliferation (Ki 67 labeling) in pancreas [2]: increased cell proliferation | insulin positive area [2]: significant increase | stimulatory effects on expression of Sirt1, Ins1, Hnf1α, IL10 and Vegfa in pancreas ([3]; GK rats): replicated | pancreatic expression of ERα ([3]; GK rats in vivo): does not regulate significantly | DYRK1A pancreatic transcription ([3]; GK rats, chronic treatment): significant downregulation | expression of genes encoding amylase, IL6 and Tnf in pancreas ([3]; GK rats, differences to saline not statistically significant): strongly altered | islet cell proliferation (KI67) ([4]; 10 nM): significant effect | increase in insulin release under basal condition ([4]; 10 nM, 2.8 mM glucose): +17.3% | stimulation of insulin secretion in response to glucose ([4]; 10 nM, glucose 16.6 mM, p=0.06): +25.8% | increase in islet insulin content ([4]; 10 nM, p<0.05): +33.7% | insulin production, secretion and content ([4]; 100 nM): no effect | binding to DYRK1A [5]: does bind
